Measured values taken from publication PMC7255010, “Small-molecule activating SIRT6 elicits therapeutic effects and synergistically promotes anti-tumor activity of vitamin D3 in colorectal cancer” (Theranostics, 2020).
Where “and” joins values, the source holds several entries; their conditions need not be identical. Equal values may be shown once. Read-outs that look alike come from different tables or passages of the source.

Assays:
[1] = tested on: adenomas in small intestines and colons of APC^min/+ mice; assay: APC^min/+ model of spontaneous CRC; assay type: in vivo, C57BL/6J-APC^min/+ mice; conditions: 20 mg/kg intraperitoneal injection every two days for 12 weeks
Protocol: C57BL/6J-APC^min/+ mice were obtained from Jackson Laboratory. […] The mice were sacrificed in the twentieth week. Tumor numbers were calculated, and tumors were imaged after longitudinal dissection of the small intestine and colon. Then, the small intestines and colons were sectioned and stained for immunohistochemistry.

[2] = Pharmacokinetic studies in mice; assay type: in vivo; conditions: male, mouse, plasma, C57BL/6J mice
Protocol: Pharmacokinetic studies were performed by Shanghai Medicilon Inc, China, following standard protocols. Briefly, six-week-old male C57BL/6J mice were grouped randomly (n = 5 per group). […] Two administration formulations were prepared in the vehicle with 5% DMSO, 10% Solutol and 85% saline, with the pH adjusted to 7.0-8.0. After treatment, the mice were sacrificed, and their plasma samples were collected at 5 min, 15 min, 30 min, 1 h, 2 h, 4 h, 8 h, and 24 h. The drug concentration in plasma was analyzed by LC-MS/MS. Pharmacokinetic parameters were calculated using Analyst Software 1.6.3 from mean plasma concentration-time profiles. The area under the curve (AUC) was measured from time versus concentration data by the linear trapezoidal rule. […] The calculation was normalized to relative doses.

SIRT6 [3] = molecular target: T1, SIRT6 (Homo sapiens, UniProt Q8N6T7); assay: Histone H3 deacetylation in HEK293T cells (western blot); assay type: cell-based; set-up: endogenous in cells; host or cells: HEK293T; conditions: dose-dependent
Protocol: Western blot analysis was performed as described previously. […] After 48 h of treatment, the cells were lysed with 1× SDS and separated by SDS-PAGE, followed by incubation with specific primary antibodies overnight at 4 °C and then with HRP-linked anti-rabbit IgG (#7074, Cell Signaling Technology) or HRP-linked anti-mouse IgG (#7076, Cell Signaling Technology). An Immobilon Western Chemiluminescent HRP Substrate Kit (Merck Millipore) was used for detection. Information regarding the primary antibodies can be found in Table S6. Quantification of western blot data was performed using ImageJ V4.

[4] = tested on: CRC cells (HCT116, HT29, and SW480); assay: Calcein-AM/PI live-dead double staining; assay type: cell-based; conditions: 10 μM MDL-811, CRC cells
Protocol: Live-dead cell staining was performed following the protocol of a Calcein-AM/PI Double Stain Kit (Yeasen). Briefly, 3 × 10^4 cells per well were seeded into 24-well plates. […] Then, cell images were acquired with a fluorescence microscope (Nikon Inverted Research Microscope Eclipse Ti). For each assay, five random fields of view per well were imaged at 10× magnification.

26 CRC cell lines = assay: Cell proliferation, CCK-8, panel of 26 CRC cell lines; assay type: cell-based; conditions: Homo sapiens, CCK-8, 48 h
Protocol: Cell proliferation was evaluated using a Cell Counting Kit-8 (CCK-8) (Dojindo) following the manufacturer's instructions. Briefly, CRC cells were plated in 96-well plates at a density of 5 × 10^3 cells per well. […] Cells treated with DMSO were used as the […] controls, and the final DMSO concentration in the medium was 0.1%. After 48 h of treatment, 10 μL of CCK-8 solution was added to every well and incubated for 1 h at 37 °C. Then, a microplate reader (Synergy H4 Hybrid Reader, BioTek) was used to measure the absorbance of the solvent at 450 nm. The background of drug and culture medium has been deducted in each well. The relative cell proliferation of each treatment group was expressed as the percentage change relative to the […] control group. Each data point is the mean ± s.d. of two or three independent experiments.

SIRT6 [5] = molecular target: T1, SIRT6; assay: Cellular thermal shift assay (CETSA) in HCT116 cells; assay type: cell-based
Protocol: CETSA was conducted as previously described. HCT116 cells were seeded in 10-cm cell culture dishes and grown to ~90% confluence. […] Cell pellets were collected by centrifugation (1,000 × g, 5 min, 4 °C), resuspended in 600 μL of 1× PBS, and distributed into different 0.2-mL tubes, each with 40 μL of cell suspension. The tubes were heated at the indicated temperature endpoints (38.5-51.5 °C) for 3 min in a PCR thermocycler. Immediately after heating, the tubes were incubated at room temperature for another 3 min. The samples were subjected to two freeze-thaw cycles in liquid nitrogen. Each cell lysate was centrifuged (15,000 × g for 20 min at 4 °C), and 25 μL of supernatant was collected. The supernatants were lysed in 25 μL of 2× SDS loading buffer at 95 °C for 10 min. Then, the samples were centrifuged, and the supernatants were analyzed by western blotting. Quantification of the SIRT6 level was performed with ImageJ V4. The signal intensity of each protein band on the western blots was normalized to the signal intensity observed at 38.5 °C. The corresponding signal intensities were plotted against temperature in GraphPad Prism V7. Each data point is shown as the mean ± s.e.m. of four independent experiments.

[6] = Body weights and behaviour of xenograft models; assay type: in vivo; conditions: CDX and PDX mice at the efficacy dosage
Protocol: All animal studies were performed following federal and institutional guidelines approved by the Institutional Animal Care and Use Committee at Shanghai Jiao-Tong University School of Medicine. To establish the CDXs, HCT116 cells (1 × 10^6) suspended in 100 μL of 1× PBS were injected subcutaneously into the flanks of six-week-old male BALB/c nude mice. To establish the PDXs, primary tumors resected from two independent CRC patients (patient #1 and #2) were collected in the culture medium. The necrotic and supporting tissues were carefully removed using sterilized surgical blades. The gross tumor was cut into fragments (2-3 mm in diameter) and inoculated subcutaneously into the flanks of nude mice. The mice were monitored daily, and caliper measurements began when tumors became visible. The tumor volume was monitored every other day via calipers. The tumor volume was calculated using the following formula: (L × W ^2) / 2, where L and W refer to the tumor diameter along the longitudinal and transverse axes, respectively. When the mean tumor volume was approximately 100 to 250 mm^3, the mice were randomly grouped (n = 6 per group for CDXs, n = 8 per group for PDXs), and treatment was initiated. […] After treatment or if meeting the humane endpoint criteria, the mice were sacrificed by CO2 asphyxiation. The tumors were dissected, imaged, and weighed. […]

[7] = 30 mg/kg, IP 30 mg/mL, mean of five mice

T1 sequence (Q8N6T7 whole entry): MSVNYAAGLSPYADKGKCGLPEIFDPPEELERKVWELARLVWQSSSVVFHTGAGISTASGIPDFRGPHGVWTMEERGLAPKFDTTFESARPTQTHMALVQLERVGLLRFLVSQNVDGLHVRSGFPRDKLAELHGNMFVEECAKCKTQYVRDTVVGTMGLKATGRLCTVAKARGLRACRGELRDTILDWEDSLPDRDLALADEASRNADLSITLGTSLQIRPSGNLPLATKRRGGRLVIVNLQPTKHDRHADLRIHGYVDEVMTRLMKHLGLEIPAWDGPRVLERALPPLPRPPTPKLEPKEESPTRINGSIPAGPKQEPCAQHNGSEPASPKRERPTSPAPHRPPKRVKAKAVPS

Cc1cc(F)c(Br)cc1NS(=O)(=O)c1ccc(NS(=O)(=O)c2cc(Cl)cc(Cl)c2)cc1CN1CCOC[C@H]1C [MDL-811]
number and size of adenomas [1]: significantly reduced the number and size of adenomas | AUC(0-inf) [2, 7]: 19700 ng·h/mL | half-life [2, 7]: 1.38 h | AUC0-t ([2]; 30 mg/kg, IP 30 mg/mL, mean of five mice, read-out: AUC0-t): 19600 ng·h/mL | Cmax ([2]; 30 mg/kg, IP 30 mg/mL, mean of five mice, read-out: Cmax): 5330 ng/mL | MRT ([2]; 30 mg/kg, IP 30 mg/mL, mean of five mice, read-out: MRT): 2.63 h | tmax ([2]; 30 mg/kg, IP 30 mg/mL, mean of five mice, read-out: tmax): 0.5 h | bioavailability ([2]; intraperitoneal, IP 30 mg/mL vs IV, ratio of AUC normalized to dose, read-out: F (bioavailability)): 93% | deacetylation of H3K9Ac, H3K18Ac, and H3K56Ac (SIRT6 [3]): significantly enhanced the deacetylation of SIRT6 (H3K9Ac, H3K18Ac, and H3K56Ac) | cell death, live-dead double staining [4]: did not cause observable cell death | IC50 (26 CRC cell lines; more than 75% (20 of 26) of the CRC cell lines, read-out: IC50 in 20 of 26 CRC cell lines): < 25 µM | IC50 (26 CRC cell lines; range over 26 CRC cell lines, read-out: IC50 values across the 26 CRC cell lines): 4.7 to 61 µM | Melting Temperature (Tm) of SIRT6 (SIRT6 [5]; 10 µM MDL-811, 24 h, HCT116 cells, DMSO 45.8 ± 0.3, mean ± s.e.m., four experiments): 47.6 ± 0.1 °C and 47.6 °C | ΔTm at 10 µM (SIRT6 [5]; HCT-116): 1.8 ± 0.2 °C | weight loss and behavioral signs [6]: did not observe any significant weight loss or other abnormal behavioral signs
